Assay results reported in PubChem BioAssay (NCI).
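How tested: cells in 96-well plates exposed to compound for 48 hours at five concentrations. GI50 is the concentration that inhibits growth by half. TGI is the concentration that stops growth completely.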

Columns and labels:
Assay in all cases: NCI anticancer screen, dose series, 48 h
786-0 renal = test system: 786-0 renal
A498 renal = test system: A498 renal
A549 NSCLC = test system: A549 NSCLC
ACHN renal = test system: ACHN renal
BT-549 breast = test system: BT-549 breast
CAKI-1 renal = test system: CAKI-1 renal
CCRF-CEM leukemia = test system: CCRF-CEM leukemia
COLO 205 colon = test system: COLO 205 colon
DU-145 prostate = test system: DU-145 prostate
EKVX NSCLC = test system: EKVX NSCLC
HCC-2998 colon = test system: HCC-2998 colon
HCT-116 colon = test system: HCT-116 colon
HCT-15 colon = test system: HCT-15 colon
HL-60(TB) leukemia = test system: HL-60(TB) leukemia
HOP-62 NSCLC = test system: HOP-62 NSCLC
HOP-92 NSCLC = test system: HOP-92 NSCLC
HS 578T breast = test system: HS 578T breast
HT29 colon = test system: HT29 colon
IGROV1 ovarian = test system: IGROV1 ovarian
K-562 leukemia = test system: K-562 leukemia
KM12 colon = test system: KM12 colon
LOX IMVI melanoma = test system: LOX IMVI melanoma
M14 melanoma = test system: M14 melanoma
MALME-3M melanoma = test system: MALME-3M melanoma
MCF7 breast = test system: MCF7 breast
MDA-MB-231 breast = test system: MDA-MB-231 breast
MDA-MB-435 = test system: MDA-MB-435
MOLT-4 leukemia = test system: MOLT-4 leukemia
NCI-H226 lung = test system: NCI-H226 lung
NCI-H23 lung = test system: NCI-H23 lung
NCI-H460 lung = test system: NCI-H460 lung
NCI-H522 lung = test system: NCI-H522 lung
NCI/ADR-RES ovarian = test system: NCI/ADR-RES ovarian
OVCAR-3 ovarian = test system: OVCAR-3 ovarian
OVCAR-4 ovarian = test system: OVCAR-4 ovarian
OVCAR-8 ovarian = test system: OVCAR-8 ovarian
PC-3 prostate = test system: PC-3 prostate
RPMI-8226 leukemia = test system: RPMI-8226 leukemia
RXF 393 renal = test system: RXF 393 renal
SF-268 CNS = test system: SF-268 CNS
SF-295 CNS = test system: SF-295 CNS
SF-539 CNS = test system: SF-539 CNS
SK-MEL-2 melanoma = test system: SK-MEL-2 melanoma
SK-MEL-28 melanoma = test system: SK-MEL-28 melanoma
SK-MEL-5 melanoma = test system: SK-MEL-5 melanoma
SK-OV-3 ovarian = test system: SK-OV-3 ovarian
SN12C renal = test system: SN12C renal
SNB-19 CNS = test system: SNB-19 CNS
SNB-75 CNS = test system: SNB-75 CNS
SR leukemia = test system: SR leukemia
SW-620 colon = test system: SW-620 colon
T-47D breast = test system: T-47D breast
TK-10 renal = test system: TK-10 renal
U251 CNS = test system: U251 CNS
UO-31 renal = test system: UO-31 renal

CCN1C(=O)N[C@H]2[C@@H]3NC(=O)c4ccc(Cl)n4[C@@H]3C[C@]21O
GI50 (786-0 renal): 902 nM | TGI (786-0 renal): 9060 nM | GI50 (A498 renal): 1820 nM | TGI (A498 renal): 6160 nM | GI50 (A549 NSCLC): 1740 nM | TGI (A549 NSCLC): 17600 nM | GI50 (ACHN renal): 1500 nM | TGI (ACHN renal): 12400 nM | GI50 (BT-549 breast): 410 nM | TGI (BT-549 breast): 4290 nM | GI50 (CAKI-1 renal): 2870 nM | TGI (CAKI-1 renal): > 100000 nM | GI50 (CCRF-CEM leukemia): 224 nM | TGI (CCRF-CEM leukemia): 1250 nM | GI50 (COLO 205 colon): 369 nM | TGI (COLO 205 colon): 1560 nM | GI50 (DU-145 prostate): 615 nM | TGI (DU-145 prostate): 19300 nM | GI50 (EKVX NSCLC): 1270 nM | TGI (EKVX NSCLC): 6890 nM | GI50 (HCC-2998 colon): 607 nM | TGI (HCC-2998 colon): 4790 nM | GI50 (HCT-116 colon): 397 nM | TGI (HCT-116 colon): 8320 nM | GI50 (HCT-15 colon): 1660 nM | TGI (HCT-15 colon): 15600 nM | GI50 (HL-60(TB) leukemia): 242 nM | TGI (HL-60(TB) leukemia): 634 nM | GI50 (HOP-62 NSCLC): 466 nM | TGI (HOP-62 NSCLC): 3710 nM | GI50 (HOP-92 NSCLC): 1040 nM | TGI (HOP-92 NSCLC): 7690 nM | GI50 (HS 578T breast): 578 nM | TGI (HS 578T breast): 13200 nM | GI50 (HT29 colon): 968 nM | TGI (HT29 colon): 10400 nM | GI50 (IGROV1 ovarian): 471 nM | TGI (IGROV1 ovarian): 6460 nM | GI50 (K-562 leukemia): 363 nM | TGI (K-562 leukemia): 5090 nM | GI50 (KM12 colon): 1060 nM | TGI (KM12 colon): 33700 nM | GI50 (LOX IMVI melanoma): 279 nM | TGI (LOX IMVI melanoma): 1300 nM | GI50 (M14 melanoma): 352 nM | TGI (M14 melanoma): 2660 nM | GI50 (MALME-3M melanoma): 653 nM | TGI (MALME-3M melanoma): 4660 nM | GI50 (MCF7 breast): 242 nM | TGI (MCF7 breast): 1500 nM | GI50 (MDA-MB-231 breast): 822 nM | TGI (MDA-MB-231 breast): 7250 nM | GI50 (MDA-MB-435): 1050 nM | TGI (MDA-MB-435): 11100 nM | GI50 (MOLT-4 leukemia): 346 nM | TGI (MOLT-4 leukemia): 2370 nM | GI50 (NCI-H226 lung): 543 nM | TGI (NCI-H226 lung): 5700 nM | GI50 (NCI-H23 lung): 531 nM | TGI (NCI-H23 lung): 4520 nM | GI50 (NCI-H460 lung): 395 nM | TGI (NCI-H460 lung): 16600 nM | GI50 (NCI-H522 lung): 288 nM | TGI (NCI-H522 lung): 1760 nM | GI50 (NCI/ADR-RES ovarian): 12000 nM | TGI (NCI/ADR-RES ovarian): 89800 nM | GI50 (OVCAR-3 ovarian): 542 nM | TGI (OVCAR-3 ovarian): 10300 nM | GI50 (OVCAR-4 ovarian): 571 nM | TGI (OVCAR-4 ovarian): 7990 nM | GI50 (OVCAR-8 ovarian): 533 nM | TGI (OVCAR-8 ovarian): 9010 nM | GI50 (PC-3 prostate): 1680 nM | TGI (PC-3 prostate): 11200 nM | GI50 (RPMI-8226 leukemia): 363 nM | TGI (RPMI-8226 leukemia): 2080 nM | GI50 (RXF 393 renal): 333 nM | TGI (RXF 393 renal): 2690 nM | GI50 (SF-268 CNS): 502 nM | TGI (SF-268 CNS): 52300 nM | GI50 (SF-295 CNS): 1000 nM | TGI (SF-295 CNS): 4930 nM | GI50 (SF-539 CNS): 369 nM | TGI (SF-539 CNS): 2570 nM | GI50 (SK-MEL-2 melanoma): 301 nM | TGI (SK-MEL-2 melanoma): 1210 nM | GI50 (SK-MEL-28 melanoma): 311 nM | TGI (SK-MEL-28 melanoma): 3030 nM | GI50 (SK-MEL-5 melanoma): 228 nM | TGI (SK-MEL-5 melanoma): 711 nM | GI50 (SK-OV-3 ovarian): 2070 nM | TGI (SK-OV-3 ovarian): 7560 nM | GI50 (SN12C renal): 420 nM | TGI (SN12C renal): 9130 nM | GI50 (SNB-19 CNS): 310 nM | TGI (SNB-19 CNS): 9250 nM | GI50 (SNB-75 CNS): 663 nM | TGI (SNB-75 CNS): 7630 nM | GI50 (SR leukemia): 257 nM | TGI (SR leukemia): 983 nM | GI50 (SW-620 colon): 511 nM | TGI (SW-620 colon): > 100000 nM | GI50 (T-47D breast): 222 nM | TGI (T-47D breast): 933 nM | GI50 (TK-10 renal): 1660 nM | TGI (TK-10 renal): 12500 nM | GI50 (U251 CNS): 329 nM | TGI (U251 CNS): 13500 nM | GI50 (UO-31 renal): 3190 nM | TGI (UO-31 renal): 24100 nM
